Blank lines part the entries; values can stand above or below the compound they belong to.
What was measured:
[1] = test system: PC9 cells; assay: Drug tolerant persister (DTP) assay, PC9 with Tarceva (erlotinib); format: cell-based, human; conditions: stained 30 days after
Source text: […] Viable cells remaining attached on the dish at the end of the third round of relevant drug treatment were considered to be DTPs, and were collected for analysis.
(§1) The structures of CPI-382 and CPI-383 are provided below.

[2] = test system: SW480 cells; assay: DTP model of CRC cell line SW480 with 5-fluorouracil and SN-38; format: cell-based
Method: A model for resistance to standard-of-care chemotherapy for colorectal cancer (CRC) was developed by treating CRC cell line SW480 with a combination of 5-fluorouracil and the irinotecan active metabolite SN-38 in a ratio of their relative IC50 values (33 μM 5-FU and 6 ηM SN-38) continuously for 16 days, followed by drug withdrawal. The cells progressively die during this treatment period. The remaining DTP cells constitute approximately 8% of the initial cell population and appear large and non-dividing. After drug withdrawal, cells continue to die for several more days, but then re-initiate proliferation and expand to form DTEP colonies by about 2 weeks in the absence of drugs.

[3] = test system: A375; assay: Cell viability assay (cell titer Glo), A375; format: cell-based; conditions: Homo sapiens, A-375, 96 h; A375, 4 days of incubation, 8 doses
Method: (§2) One goal was to identify a cell line that would be sensitive to vemurafenib and amenable to DTP formation. For this, a set of 18 melanoma cell lines were tested by standard cell viability assay using cell titer Glo readout after 4 days of incubation with 8 different doses of vemurafenib. The results identified 3 melanoma cell lines (A375, Colo829 and HT144) with GI50's below 600 nM. All 3 of these cell lines were b raf mutant. After experiments with all these cell lines, Colo-829 was selected as the preferred cell line for DTP establishment.
(§3) 1.1 Identifying melanoma cell lines sensitive to Vemurafenib • Day 0: 1000 cells/well were plated in 100 μl total volume in a 96 well flat bottom plate. • Day 1: The cells were treated with vemurafenib. The highest concentration in the assay was 20 μM and was diluted 3 fold down with the lowest concentration being 9 nM. • Day 5: 100 μl of cell titer glo was added to each well and the plates read on Envision. The data was plotted using graphpad prism. 1.2 DTP establishment in melanoma cell lines • Day 0: Cells (4.5×10^6 cells/P150 dishes) were plated, 4 plates/cell line. • Day 2: All the cell lines were 60-80% confluent. […] The cells in these plates were counted and ⅛th the numbers were replated in 2 new P150 dishes. […] The cells were counted and the percentage of cells remaining on the Vemurafenib treated dish vs the control dish were identified. […]

[4] = test system: Colo829; assay: Cell viability assay (cell titer Glo), Colo829; format: cell-based; conditions: Homo sapiens, COLO-829, 96 h; Colo829, 4 days of incubation, 8 doses
Method: as §2, §3

[5] = test system: HT144; assay: Cell viability assay (cell titer Glo), HT144; format: cell-based; conditions: Homo sapiens, HT-144, 96 h; HT144, 4 days of incubation, 8 doses
Method: as §2, §3

[6] = test system: H3K4me3; assay: H3K4me3 MSD ELISA in PC9; format: cell-based, human; conditions: PC9 (NSCLC)
Method: (§4) Cells were rinsed with PBS and MSD Buffer AT (10 mM HEPES, pH 7.9, 5 mM MgCl2, 0.25M sucrose, Benzonase (1:10000), 1% Triton X-100 supplemented with fresh 1× Protease Inhibitor cocktail and 1 mM PMSF/AEBSF) was added. Cells were lysed for 30 minutes and then 10 uL 5M NaCl was added and allowed to lyse on ice for another 15 minutes. Lysates were rinse with 150 uL ice-cold NO Salt NO detergent buffer (20 mM Tris pH 7.5, 1 mM EDTA, 1 mM EGTA, supplemented with fresh 1× Protease Inhibitor cocktail and 1 mM PMSF).
(§5) MSD plates (Catalog #L15XA-3) were then coated with Capture Antibody Anti-histone (Millipore Catalog # MAB3422) for H3K4me3: 2 ug/mL final concentration and/or plates testing for H3: 1 ug/mL final concentration. MSD plates were then blocked with 5% Blocker A (MSD Catalog #R93AA-2). Lysates to MSD plates were subsequently transferred, sealed and incubated with shaking at RT for 2:30 hours and then incubated with detection antibody in 1% Blocker A in TBST for 30 min (anti-Histone H3 (#4499 from Cell Signaling) at 0.125 ug/mL and/or anti-K4Me3 (#9751 from Cell Signaling) at 1 ug/mL). Sulfo-tag rabbit antibody (MSD Catalog# R32AB-1) in 1% Blocker A in TBST was added and incubated for 1 h at RT. […] 1× Read Buffer (MSD Catalog #R92TD-3) was added and read on MSD SECTOR® Imager 2400. Data was analyzed data using MACRO template provided using samples treated with DMSO as 0% or Min. […]

[7] = test system: H3K4me3; assay: H3K4me3 MSD ELISA in H441; format: cell-based; conditions: H441 (NSCLC)
Method: as §4, §5

[8] = test system: H441 cells; assay: Drug tolerant persister (DTP) assay, H441; format: cell-based; conditions: in combination with the recited cancer therapy agent
Method: Specifically for carboplatin and paclitaxel DTPs, Cells were plated and grown to 60-70% confluency then treated with Carboplatin (5.38 uM) and Paclitaxel (1.25 uM) for 5 cycles of 24 hours on 48 hours off drug. DTPs were collected and analyzed 1 week after the final dose of chemotherapy.
as §1

[9] = test system: H3K4me3; assay: H3K4me3 MSD ELISA in SKBR3; format: cell-based; conditions: SKBR3 (breast cancer)
Method: as §4, §5

[10] = test system: H3K4me3; assay: H3K4me3 MSD ELISA in H596; format: cell-based; conditions: H596 (lung epithelial adenosquamous carcinoma)
Method: as §4, §5

[11] = test system: SKBR3; assay: Cell number with KDM5 antagonist alone, SKBR3; format: cell-based; conditions: after 96 hours in drug, concentrations below 25 uM
Method: (§6) 3×10^4 cells were plated in each well of a 12-well cluster dish. 24 hours after plating, media was removed and replaced with media containing drugs. Fresh media was replaced every 2 days until untreated cells reached confluence. Media was then removed, cells were washed with Phosphate Buffered Saline (PBS), and then fixed for 15 min with 4% formaldehyde in PBS. Cells were then washed with PBS and stained with the fluorescent nucleic acid stain, Syto60 (1 nM in PBS; Molecular Probes) for 15 min. Dye was removed, cell monolayers were washed with PBS, and fluorescence quantitation was carried out at 700 nm with an Odyssey Infrared Imager (Li-Cor Biosciences).

[12] = test system: PC9 cells; assay: Gamma irradiation of PC9 cells after KDM5 inhibitor pretreatment; format: cell-based, human
Method: For Gamma irradiation the cells were treated for 5 days with inhibitors replated at 500,000 cells with the inhibitor. After cell attachment (approximately 8 hours), the cells were irradiated, and cells were counted 5 days after irradiation.

[13] = test system: HCC1954; assay: Drug tolerant persister (DTP) assay, HCC1954; format: cell-based; conditions: HCC1954 (breast cancer); in combination with the recited cancer therapy agent
Method: (§7) Drug-sensitive cells were treated with relevant drug as described herein at concentrations exceeding 100 times the established IC50 values, for three rounds, with each treatment lasting 72 hours. Viable cells remaining attached on the dish at the end of the third round of relevant drug treatment were considered to be DTPs, and were collected for analysis.
as §1

[14] = test system: PC9 cells; assay: Cell number with KDM5 antagonist alone, PC9; format: cell-based, human; conditions: after 96 hours in drug, concentrations below 50 uM
Method: as §6

[15] = test system: SKBR3; assay: Drug tolerant persister (DTP) assay, SKBR3; format: cell-based; conditions: in combination with the recited cancer therapy agent
Method: as §7, §1

[16] = nuc-RED PC9, various concentrations for 5 days prior to 1 uM Tarceva (erlotinib)

Compound: O=c1[nH]c(Oc2cnn(Cc3ccccc3)c2)nc2cnccc12 [CPI-382]
- development of drug tolerant persisters [1, 16]: capable of reducing the development of drug tolerant persisters

Compound: CC(/C=C/C(=O)NO)=C\[C@@H](C)C(=O)c1ccc(N(C)C)cc1 [Trichostatin A]
- DTP survival ([2]; 20 ηM): does not affect DTP survival

Compound: Nc1ncn([C@@H]2O[C@H](CO)[C@@H](O)[C@H]2O)c(=O)n1 [5-azacytidine]
- DTP survival ([2]; 0.2 μM): does not affect DTP survival

- GI50 [3]: < 600 nM
- GI50 [4]: < 600 nM
- GI50 [5]: < 600 nM
Compound: CCCS(=O)(=O)Nc1ccc(F)c(C(=O)c2c[nH]c3ncc(-c4ccc(Cl)cc4)cc23)c1F [vemurafenib, Vemurafenib]

Compound: O=c1[nH]c(Oc2cnn(Cc3ccccc3)c2)nc2ncccc12 [CPI-383]
- development of drug tolerant persisters [1, 16]: no significant effect

Compound: CPI-455
- H3K4me3 [6]: increase H3K4me3
- H3K4me3 [7]: increase H3K4me3
- development of drug tolerant persisters [8]: capable of inhibiting the development of drug tolerant persisters
- H3K4me3 [9]: increase H3K4me3
- development of drug tolerant persisters ([1]; PC9, in combination with cancer therapy agent, 25 uM for 5 days prior to 1uM Tarceva): capable of inhibiting the development of drug tolerant persisters
- H3K4me3 [10]: increase H3K4me3
- cell number [11]: did not substantially affect cell number
- number of cells following γ-irradiation ([12]; PC9, pretreatment for 5 days, compared to inactive controls): decreases the number of cells following γ-irradiation
- development of drug tolerant persisters ([12]; in combination with radiation therapy): capable of inhibiting the development of drug tolerant persisters
- development of drug tolerant persisters [13]: capable of inhibiting the development of drug tolerant persisters
- cell number [14]: did not substantially affect cell number
- development of drug tolerant persisters [15]: capable of inhibiting the development of drug tolerant persisters
